Assays:
Type in all cases: cell-based
[1] = test system: Aβ42; experiment: Screening for γ-secretase-modulating activity, Method 2: Aβ42 Alphalisa in supernatant of SKNBE2 cells carrying APP 695 wild type (Table 12c); details: Method 2, Table 12c, incubated overnight
Procedure: (§1) Screening was carried out using SKNBE2 cells carrying the APP 695—wild type, grown in Dulbecco's Modified Eagle's Medium/Nutrient mixture F-12 (DMEM/NUT-mix F-12) (HAM) provided by Invitrogen (cat no. 10371-029) containing 5% Serum/Fe supplemented with 1% non-essential amino acids, 1-glutamine 2 mM, Hepes 15 mM, penicillin 50 U/ml (units/ml) en streptomycin 50 μg/ml. Cells were grown to near confluency.
(§2) The screening was performed using a modification of the assay as described in Citron et al (1997) Nature Medicine 3: 67. Briefly, cells were plated in a 384-well plate at 10^4 cells/well in Ultraculture (Lonza, BE12-725F) supplemented with 1% glutamine (Invitrogen, 25030-024), 1% non-essential amino acid (NEAA), penicillin 50 U/ml en streptomycin 50 μg/ml in the presence of test compound at different test concentrations. The cell/compound mixture was incubated overnight at 37° C., 5% CO2, The next day the media were assayed by two sandwich immuno-assays, for Aβ42 and Aβtotal.
(§3) Aβtotal and Aβ42 concentrations were quantified in the cell supernatant using the Aphalisa technology (Perkin Elmer). Alphalisa is a sandwich assay using biotinylated antibody attached to streptavidin coated donorbeads and antibody conjugated to acceptor beads. In the presence of antigen, the beads come into close proximity. The excitation of the donor beads provokes the release of singlet oxygen molecules that trigger a cascade of energy transfer in the acceptor beads, resulting in light emission. To quantify the amount of Aβ42 in the cell supernatant, monoclonal antibody specific to the C-terminus of Aβ42 (JRF/cAβ42/26) was coupled to the receptor beads and biotinylated antibody specific to the N-terminus of Aβ (JRF/AβN/25) was used to react with the donor beads. To quantify the amount of Aβtotal in the cell supernatant, monoclonal antibody specific to the N-terminus of Aβ (JRF/AβN/25) was coupled to the receptor beads and biotinylated antibody specific to the mid region of Aβ (biotinylated 4G8) was used to react with the donor beads.
(§4) To obtain the values reported in Table 12c, the data are calculated as percentage of the maximum amount of amyloid Beta 42 measured in the absence of the test compound. The sigmoidal dose response curves were analyzed using non-linear regression analysis with percentage of the control plotted against the log concentration of the compound. A 4-parameter equation was used to determine the IC50.

[2] = test system: Aβtotal; experiment: Screening for γ-secretase-modulating activity, Method 2: Aβtotal Alphalisa in supernatant of SKNBE2 cells carrying APP 695 wild type (Table 12c); details: Method 2, Table 12c, incubated overnight
Procedure: as §1, §2, §3, §4

[3] = test system: Aβ42; experiment: Screening for γ-secretase-modulating activity, Method 1: Aβ42 sandwich ELISA in supernatant of SKNBE2 cells carrying APP 695 wild type (Tables 12a, 12b); details: Table 12b, Method 1, SKNBE2 cells carrying APP 695 wild type, cell supernatant ELISA, averaged IC50 values, percentage of control vs log concentration
Procedure: as §1, with “Gibco” for “Invitrogen”, “31330-38)” for “10371-029)”, “acids.” for “acids, 1-glutamine 2 mM, Hepes 15 mM, penicillin 50 U/ml (units/ml) en streptomycin 50 μg/ml.”
(§5) The screening was performed using the assay as described in Citron et al (1997) Nature Medicine 3: 67. Briefly, cells were plated in a 96-well plate at about 10^5 cells/ml one day prior to addition of compounds. Compounds were added to the cells in Ultraculture (Lonza, BE12-725F) supplemented with 1% glutamine (Invitrogen, 25030-024) for 18 hours. The media were assayed by two sandwich ELISAs, for Aβ42 and Aβtotal. Toxicity of the compounds was assayed by WST-1 cell proliferation reagent (Roche, 1 644 807) according to the manufacturer's protocol.
To quantify the amount of Aβ42 in the cell supernatant, commercially available Enzyme-Linked-Immunosorbent-Assay (ELISA) kits were used (Innotest® β-Amyloid(1-42), Innogenetics N.V., Ghent, Belgium). The Aβ42 ELISA was performed essentially according to the manufacturer's protocol. Briefly, the standards (dilutions of synthetic Aβ1-42) were prepared in polypropylene Eppendorf with final concentrations of 8000 down to 3.9 pg/ml (1/2 dilution step). Samples, standards and blanks (100 μl) were added to the anti-Aβ42-coated plate supplied with the kit (the capture antibody selectively recognizes the C-terminal end of the antigen). The plate was allowed to incubate 3 h at 25° C. in order to allow formation of the antibody-amyloid complex. Following this incubation and subsequent wash steps a selective anti-Aβ-antibody conjugate (biotinylated 3D6) was added and incubated for a minimum of 1 hour in order to allow formation of the antibody-Amyloid-antibody-complex. After incubation and appropriate wash steps, a Streptavidine-Peroxidase-Conjugate was added, followed 30 minutes later by an addition of 3,3′,5,5′-tetramethylbenzidine (TMB)/peroxide mixture, resulting in the conversion of the substrate into a coloured product. This reaction was stopped by the addition of sulfuric acid (0.9 N) and the colour intensity was measured by means of photometry with an ELISA-reader with a 450 nm filter.
(§6) To obtain the values reported in Table 12a, the sigmoidal dose response curves were analysed by computerised curve-fitting, with percent of inhibition plotted against compound concentration. A 4-parameter equation (model 205) in XLfit was used to determine the IC50. The top and the bottom of the curve were fixed to 100 and 0, respectively, and the hill slope was fixed to 1. The IC50 represents the concentration of a compound that is required for inhibiting a biological effect by 50% (Here, it is the concentration where Aβ peptide level is reduced by 50%).
as §4, with “12b,” for “12c,”, “IC50. The values reported in Table 12b are averaged IC50 values.” for “IC50.”

[4] = test system: Aβtotal; experiment: Screening for γ-secretase-modulating activity, Method 1: Aβtotal sandwich ELISA in supernatant of SKNBE2 cells carrying APP 695 wild type (Tables 12a, 12b); details: Table 12b, Method 1, SKNBE2 cells carrying APP 695 wild type, cell supernatant ELISA, averaged IC50 values
Procedure: as §1, with “Gibco” for “Invitrogen”, “31330-38)” for “10371-029)”, “acids.” for “acids, 1-glutamine 2 mM, Hepes 15 mM, penicillin 50 U/ml (units/ml) en streptomycin 50 μg/ml.”
as §5
To quantify the amount of Aβtotal in the cell supernatant, samples and standards were added to a 6E10-coated plate. The plate was allowed to incubate overnight at 4° C. in order to allow formation of the antibody-amyloid complex. Following this incubation and subsequent wash steps a selective anti-Aβ-antibody conjugate (biotinylated 4G8) was added and incubated for a minimum of 1 hour in order to allow formation of the antibody-Amyloid-antibody-complex. After incubation and appropriate wash steps, a Streptavidine-Peroxidase-Conjugate was added, followed 30 minutes later by an addition of Quanta Blu fluorogenic peroxidase substrate according to the manufacturer's instructions (Pierce Corp., Rockford, Ill.).
as §6
as §4, with “12b,” for “12c,”, “IC50. The values reported in Table 12b are averaged IC50 values.” for “IC50.”

SMILES	IC50 [1]	IC50 [2]	other results
CCCCc1cn2cccc(Nc3ccc(-n4cnc(C)c4)c(OC)c3)c2n1 [Compound 69]	46 nM	> 10000 nM	–
COCc1c(-c2ccccc2)nc2c(Nc3ccc(-n4cnc(C)c4)c(F)c3)cccn12 [Compound 104]	29 nM	7240 nM	–
COc1cc(Nc2cccn3cc(C(=O)OC(C)(C)C)nc23)ccc1-n1cnc(C)c1 [Compound 106]	34 nM	4570 nM	–
COc1cc(Nc2cccn3cc(-c4cc(CN)ccc4C)nc23)ccc1-n1cnc(C)c1 [Compound 107]	–	–	IC50 ([1]; Homo sapiens): 48 nM; IC50 ([2]; Homo sapiens): 2040 nM
COc1cc(Nc2cccn3cc(C(O)C(F)(F)F)nc23)ccc1-n1cnc(C)c1 (centres unmarked) [Compound 110]	129 nM	> 10000 nM	–
CCC(=O)NCc1ccc(C)c(-c2cn3cccc(Nc4ccc(-n5cnc(C)c5)c(OC)c4)c3n2)c1 [Compound 111]	–	–	IC50 ([1]; Homo sapiens): 65 nM; IC50 ([2]; Homo sapiens): 5500 nM
COc1c(-c2ccc(F)cc2)nc2c(Nc3ccc(-n4cnc(C)c4)c(F)c3)cccn12 [Compound 112]	107 nM	> 10000 nM	–
COCCOCCOCC(=O)NCc1ccc(C)c(-c2cn3cccc(Nc4ccc(-n5cnc(C)c5)c(OC)c4)c3n2)c1 [Compound 114]	–	–	IC50 ([1]; Homo sapiens): 151 nM; IC50 ([2]; Homo sapiens): 3630 nM
Cc1cn(-c2ccc(Nc3cccn4cc(CC5CCOCC5)nc34)cc2F)cn1 [Compound 115]	–	–	IC50 ([1]; Homo sapiens): 257 nM; IC50 ([2]; Homo sapiens): 8320 nM
CCC(=O)c1cn2cccc(Nc3ccc(-n4cnc(C)c4)c(OC)c3)c2n1 [Compound 117]	–	–	IC50 ([1]; Homo sapiens): 331 nM; IC50 ([2]; Homo sapiens): > 10000 nM
COc1cc(Nc2cccn3cc(C(C)(C)O)nc23)ccc1-n1cnc(C)c1 [Compound 121]	1320 nM	> 10000 nM	–
COc1cc(Nc2cccn3cc(C(=O)N(C)C)nc23)ccc1-n1cnc(C)c1 [Compound 123]	5370 nM	> 10000 nM	–
COc1cc(Nc2cccn3c(CN(C)C)c(-c4ccccc4Cl)nc23)ccc1-n1cnc(C)n1 [Compound 126]	52 nM	> 10000 nM	–
COc1cc(Nc2cccn3c(CN(C)C)c(-c4ccccc4)nc23)ccc1-n1cnc(C)n1 [Compound 128]	62 nM	> 10000 nM	–
COc1nc(Nc2cccn3c(C)c(-c4ccccc4Cl)nc23)ccc1-n1cnc(C)c1 [Compound 139]	5 nM	4270 nM	–
COCc1c(-c2ccccc2Cl)nc2c(Nc3ccc(-n4cnc(C)c4)c(OC)n3)cccn12 [Compound 140]	6 nM	4070 nM	–
COc1nc(Nc2cccn3c(OC)c(-c4ccc(F)cc4)nc23)ccc1-n1cnc(C)c1 [Compound 141]	13 nM	> 10000 nM	–
COc1nc(Nc2cc(F)cn3cc(CC(C)C)nc23)ccc1-n1cnc(C)c1 [Compound 142]	31 nM	6610 nM	–
COc1nc(Nc2cccn3cc(C4CCOCC4)nc23)ccc1-n1cnc(C)c1 [Compound 143]	60 nM	3390 nM	–

SMILES	IC50 [1]	IC50 [2]	other results
Cc1cn(-c2ccc(Nc3cc(F)cn4cc(-c5ccc(F)cc5C)nc34)cc2F)cn1 [Compound 148]	43 nM	> 10000 nM	–
Cc1cn(-c2ccc(Nc3cc(Cl)cn4cc(C5CCOCC5)nc34)cc2F)cn1 [Compound 150]	200 nM	> 10000 nM	–
CCc1cn2cc(C(F)(F)F)cc(Nc3ccc(-n4cnc(C)n4)c(OC)c3)c2n1 [Compound 153]	–	–	IC50 ([3]; Homo sapiens): 1900 nM; IC50 ([4]; Homo sapiens): > 3020 nM
C=Cc1cn2cc(C(F)(F)F)cc(Nc3ccc(-n4cnc(C)n4)c(OC)c3)c2n1 [Compound 154]	–	–	IC50 ([3]; Homo sapiens): > 3020 nM; IC50 ([4]; Homo sapiens): > 3020 nM
COc1cc(Nc2cc(C(F)(F)F)cn3cc(C(=O)O)nc23)ccc1-n1cnc(C)c1 [Compound 156]	–	–	IC50 [3]: > 3020 nM; IC50 [4]: > 3020 nM
COc1cc(Nc2cc(C(F)(F)F)nn3cc(C4CCOCC4)nc23)ccc1-n1cnc(C)c1 [Compound 158]	71 nM	8910 nM	–
COc1cc(Nc2ccnn3cc(-c4cc(F)ccc4C)nc23)ccc1-n1cnc(C)c1 [Compound 159]	–	–	IC50 ([1]; Homo sapiens): 55 nM; IC50 ([2]; Homo sapiens): 4790 nM
COc1cc(Nc2cc(C(C)C)nn3cc(C)nc23)ccc1-n1cnc(C)c1 [Compound 160]	87 nM	> 10000 nM	–
COc1ccccc1-c1cc(Nc2ccc(-n3cnc(C)c3)c(OC)c2)c2nc(C)cn2n1 [Compound 161]	132 nM	> 10000 nM	–
COc1cc(Nc2cc(Cl)nn3cc(-c4cc(F)ccc4C)nc23)ccc1-n1cnc(C)n1 [Compound 162]	138 nM	> 10000 nM	–
COc1cc(Nc2cc(C(F)(F)F)nn3cc(C)nc23)ccc1-n1cnc(C)c1 [Compound 164]	–	–	IC50 [3]: 178 nM; IC50 [4]: > 10000 nM
COc1cc(Nc2cc(Cl)nn3cc(C)nc23)ccc1-n1cnc(C)c1 [Compound 165]	178 nM	> 10000 nM	–
Cc1cn(-c2ccc(Nc3ccnn4cc(-c5cc(F)ccc5C)nc34)cc2F)cn1 [Compound 166]	251 nM	> 10000 nM	–
Cc1cn(-c2ccc(Nc3cc(Cl)nn4cc(-c5cc(F)ccc5C)nc34)cc2F)cn1 [Compound 169]	417 nM	7940 nM	–
COc1cc(Nc2cc(C3CCOCC3)nn3cc(C)nc23)ccc1-n1cnc(C)c1 [Compound 170]	447 nM	> 10000 nM	–
C=C(C)c1cc(Nc2ccc(-n3cnc(C)c3)c(OC)n2)c2nc(-c3ccccc3Cl)cn2n1 [Compound 171]	–	–	IC50 ([1]; Homo sapiens): 537 nM; IC50 ([2]; Homo sapiens): 8320 nM
COc1cc(Nc2nc(Br)cn3cc(-c4ccc(F)cc4C)nc23)ccc1-n1cnc(C)n1 [Compound 177]	–	–	IC50 ([3]; Homo sapiens): 234 nM; IC50 ([4]; Homo sapiens): > 3020 nM
COc1cc(Nc2nccn3cc(-c4ccc(F)cc4)nc23)ccc1-n1cnc(C)n1 [Compound 178]	380 nM	> 10000 nM	–
